Measured values as given in US9579314B2 (priority 2015, dated 2017).

These molecules were tested against Human β2 adrenoceptor (Homo sapiens, UniProt P07550). Conditions: read-out: B2 binding affinity.
Human β2 adrenoceptor, sequence (P07550 whole entry): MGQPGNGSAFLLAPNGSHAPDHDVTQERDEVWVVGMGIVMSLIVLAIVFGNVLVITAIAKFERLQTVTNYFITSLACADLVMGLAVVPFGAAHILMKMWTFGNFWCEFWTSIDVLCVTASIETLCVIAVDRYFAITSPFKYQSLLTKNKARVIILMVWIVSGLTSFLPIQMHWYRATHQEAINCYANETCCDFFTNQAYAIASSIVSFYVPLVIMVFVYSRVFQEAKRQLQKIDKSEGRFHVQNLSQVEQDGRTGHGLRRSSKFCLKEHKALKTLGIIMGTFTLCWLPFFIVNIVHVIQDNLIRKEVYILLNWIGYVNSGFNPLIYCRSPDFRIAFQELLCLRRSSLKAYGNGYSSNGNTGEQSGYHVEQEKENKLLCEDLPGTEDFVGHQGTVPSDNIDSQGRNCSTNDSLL
For `O=C(NCCCOc1cccc([C@](O)(C(=O)OC2CCN(Cc3ccccc3)CC2)c2ccccc2)c1)c1ccc(CNC[C@H](O)c2ccc(O)c3[nH]c(=O)ccc23)cc1` [Compound 158, 1-Benzylpiperidin-4-yl (S)-2-hydroxy-2-(3-(3-(4-((((R)-2-hydroxy-2-(8-hydroxy-2-oxo-1,2-dihydroquinolin-5-yl)ethyl)amino)methyl)benzamido)propoxy)phenyl)-2-phenylacetate], the IC50 was < 0.3 nM. With `O=C(N[C@H]1CCCN(C(=O)COc2cccc([C@](O)(C(=O)OCC3CCN(Cc4ccccc4)CC3)c3ccccc3)c2)C1)c1ccc(CNC[C@H](O)c2ccc(O)c3[nH]c(=O)ccc23)cc1` [Compound 72, (1-benzylpiperidin-4-yl)methyl (S)-2-hydroxy-2-(3-(2-((S)-3-(4-((((R)-2-hydroxy-2-(8-hydroxy-2-oxo-1,2-dihydroquinolin-5-yl)ethyl)amino)methyl)benzamido)piperidin-1-yl)-2-oxoethoxy)phenyl)-2-phenylacetate] the IC50 was > 3 nM. Work on `O=C(N[C@H]1CCN(C(=O)COc2cccc([C@](O)(C(=O)OCC3CCN(Cc4ccccc4)CC3)c3ccccc3)c2)C1)c1ccc(CCNC[C@H](O)c2ccc(O)c3[nH]c(=O)ccc23)cc1` [Compound 109, (1-benzylpiperidin-4-yl)methyl (S)-2-hydroxy-2-(3-(2-((S)-3-(4-(2-(((R)-2-hydroxy-2-(8-hydroxy-2-oxo-1,2-dihydroquinolin-5-yl)ethyl)amino)ethyl)benzamido)pyrrolidin-1-yl)-2-oxoethoxy)phenyl)-2-phenylacetate] yielded an IC50 of 0.3 to 3 nM. In the case of `O=C(COc1cccc([C@](O)(C(=O)OCC2CCN(Cc3ccccc3)CC2)c2ccccc2)c1)N[C@@H]1CCCN(C(=O)c2ccc(CNC[C@H](O)c3ccc(O)c4[nH]c(=O)ccc34)cc2)C1` [Compound 71, (1-benzylpiperidin-4-yl)methyl (S)-2-hydroxy-2-(3-(2-(((R)-1-(4-((((R)-2-hydroxy-2-(8-hydroxy-2-oxo-1,2-dihydroquinolin-5-yl)ethyl)amino)methyl)benzoyl)piperidin-3-yl)amino)-2-oxoethoxy)phenyl)-2-phenylacetate], the IC50 is reported as > 3 nM. `O=C(COc1cccc([C@](O)(C(=O)OCC2CCN(Cc3ccccc3)CC2)c2ccccc2)c1)N1CC(C(=O)N2CCC(CNC[C@H](O)c3ccc(O)c4[nH]c(=O)ccc34)CC2)C1` [Compound 147, (1-Benzylpiperidin-4-yl)methyl (S)-2-hydroxy-2-(3-(2-(3-(4-((((R)-2-hydroxy-2-(8-hydroxy-2-oxo-1,2-dihydroquinolin-5-yl)ethyl)amino)methyl)piperidine-1-carbonyl)azetidin-1-yl)-2-oxoethoxy)phenyl)-2-phenylacetate] was tested, and the IC50 was < 0.3 nM. With `CN1CC[C@@H](OC(=O)[C@](O)(c2ccccc2)c2cccc(OCCCCCNC[C@H](O)c3ccc(O)c4[nH]c(=O)ccc34)c2)C1` [Compound 19] the IC50 was < 0.3 nM. `O=C(NCc1ccc(COc2cccc([C@](O)(C(=O)OC3CCN(Cc4ccccc4)CC3)c3ccccc3)c2)cc1)Nc1ccc(CNC[C@H](O)c2ccc(O)c3[nH]c(=O)ccc23)cc1` [Compound 166, 1-Benzylpiperidin-4-yl (S)-2-hydroxy-2-(3-((4-((3-(4-((((R)-2-hydroxy-2-(8-hydroxy-2-oxo-1,2-dihydroquinolin-5-yl)ethyl)amino)methyl)phenyl)ureido)-methyl)benzyl)oxy)phenyl)-2-phenylacetate] was tested, and the IC50 was 0.3 to 3 nM. In the case of `O=C(NCCCOc1cccc([C@](O)(C(=O)OC[C@@H]2CCN(Cc3ccccc3)C2)c2ccccc2)c1)c1ccc(CNC[C@H](O)c2ccc(O)c3[nH]c(=O)ccc23)cc1` [Compound 159, ((R)-1-benzylpyrrolidin-3-yl)methyl (S)-2-hydroxy-2-(3-(3-(4-((((R)-2-hydroxy-2-(8-hydroxy-2-oxo-1,2-dihydroquinolin-5-yl)ethyl)amino)methyl)benzamido)propoxy)phenyl)-2-phenylacetate], the IC50 is reported as < 0.3 nM. For `CN(C)CCOC(=O)[C@](O)(c1ccccc1)c1cccc(OCCCCCNC[C@H](O)c2ccc(O)c3[nH]c(=O)ccc23)c1` [Compound 17, (S)-2-(dimethylamino)ethyl 2-hydroxy-2-(3-((5-(((R)-2-hydroxy-2-(8-hydroxy-2-oxo-1,2-dihydroquinolin-5-yl)ethyl)amino)pentyl)oxy)phenyl)-2-phenylacetate], the IC50 was 0.3 to 3 nM. With `O=C(NCCCOc1cccc([C@](O)(C(=O)OC2CN(Cc3ccccc3)C2)c2ccccc2)c1)c1ccc(CNC[C@H](O)c2ccc(O)c3[nH]c(=O)ccc23)cc1` [Compound 165, 1-benzylazetidin-3-yl (S)-2-hydroxy-2-(3-(3-(4-((((R)-2-hydroxy-2-(8-hydroxy-2-oxo-1,2-dihydroquinolin-5-yl)ethyl)amino)methyl)benzamido)propoxy)phenyl)-2-phenylacetate] the IC50 was < 0.3 nM. `O=C(NCCCOc1cccc([C@](O)(C(=O)O[C@H]2CCN(Cc3ccccc3)C2)c2ccccc2)c1)c1ccc(CNC[C@H](O)c2ccc(O)c3[nH]c(=O)ccc23)cc1` [Compound 164, (S)-1-benzylpyrrolidin-3-yl (S)-2-hydroxy-2-(3-(3-(4-((((R)-2-hydroxy-2-(8-hydroxy-2-oxo-1,2-dihydroquinolin-5-yl)ethyl)amino)methyl)benzamido)propoxy)phenyl)-2-phenylacetate] gave an IC50 of 0.3 to 3 nM. `O=C(NCCCOc1cccc([C@](O)(C(=O)OC[C@H]2CCN(Cc3ccccc3)C2)c2ccccc2)c1)c1ccc(CNC[C@H](O)c2ccc(O)c3[nH]c(=O)ccc23)cc1` [Compound 160, ((S)-1-benzylpyrrolidin-3-yl)methyl (S)-2-hydroxy-2-(3-(3-(4-((((R)-2-hydroxy-2-(8-hydroxy-2-oxo-1,2-dihydroquinolin-5-yl)ethyl)amino)methyl)benzamido)propoxy)phenyl)-2-phenylacetate] was tested, and the IC50 was < 0.3 nM. In the case of `CN1CC(OC(=O)[C@](O)(c2ccccc2)c2cccc(OCCCCCNC[C@H](O)c3ccc(O)c4[nH]c(=O)ccc34)c2)C1` [Compound 26, (S)-1-methylazetidin-3-yl 2-hydroxy-2-(3-((5-(((R)-2-hydroxy-2-(8-hydroxy-2-oxo-1,2-dihydroquinolin-5-yl)ethyl)amino)pentyl)oxy)phenyl)-2-phenylacetate], the IC50 is reported as < 0.3 nM. With `CN1CCC(OC(=O)[C@](O)(c2ccccc2)c2cccc(OCCCCCNC[C@H](O)c3ccc(O)c4[nH]c(=O)ccc34)c2)CC1` [Compound 21, (S)-1-methylpiperidin-4-yl 2-hydroxy-2-(3-((5-(((R)-2-hydroxy-2-(8-hydroxy-2-oxo-1,2-dihydroquinolin-5-yl)ethyl)amino)pentyl)oxy)phenyl)-2-phenylacetate] the IC50 was < 0.3 nM. With `CN1CC[C@@H](OC(=O)[C@@](O)(c2ccccc2)c2cccc(OCCCCCNC[C@H](O)c3ccc(O)c4[nH]c(=O)ccc34)c2)C1` [Compound 20, (R)-(R)-1-methylpyrrolidin-3-yl 2-hydroxy-2-(3-((5-(((R)-2-hydroxy-2-(8-hydroxy-2-oxo-1,2-dihydroquinolin-5-yl)ethyl)amino)pentyl)oxy)phenyl)-2-phenylacetate] the IC50 was < 0.3 nM. With `COc1cc(CNC[C@H](O)c2ccc(O)c3[nH]c(=O)ccc23)ccc1NC(=O)NCc1ccc(COc2cccc([C@](O)(C(=O)OC3CCN(Cc4ccccc4)CC3)c3ccccc3)c2)cc1` [Compound 168, 1-benzylpiperidin-4-yl (S)-2-hydroxy-2-(3-((4-((3-(4-((((R)-2-hydroxy-2-(8-hydroxy-2-oxo-1,2-dihydroquinolin-5-yl)ethyl)amino)methyl)-2-methoxyphenyl)ureido)methyl)benzyl)oxy)phenyl)-2-phenylacetate] the IC50 was 0.3 to 3 nM. With `CN1CCC(OC(=O)[C@@](O)(c2ccccc2)c2cccc(OCCCCCNC[C@H](O)c3ccc(O)c4[nH]c(=O)ccc34)c2)CC1` [Compound 22, (R)-1-methylpiperidin-4-yl 2-hydroxy-2-(3-((5-(((R)-2-hydroxy-2-(8-hydroxy-2-oxo-1,2-dihydroquinolin-5-yl)ethyl)amino)pentyl)oxy)phenyl)-2-phenylacetate] the IC50 was < 0.3 nM. `COc1cc(NC(=O)NCc2ccc(COc3cccc([C@](O)(C(=O)OC4CCN(Cc5ccccc5)CC4)c4ccccc4)c3)cc2)ccc1CNC[C@H](O)c1ccc(O)c2[nH]c(=O)ccc12` [Compound 167, 1-benzylpiperidin-4-yl (S)-2-hydroxy-2-(3-((4-((3-(4-((((R)-2-hydroxy-2-(8-hydroxy-2-oxo-1,2-dihydroquinolin-5-yl)ethyl)amino)methyl)-3-methoxyphenyl)ureido)methyl)benzyl)oxy)phenyl)-2-phenylacetate] showed an IC50 of 0.3 to 3 nM. With `CN1CC[C@@H](OC(=O)C(O)(c2ccccc2)c2cccc(C(=O)NCCCCNC[C@H](O)c3ccc(O)c4[nH]c(=O)ccc34)c2)C1` (stereo partly drawn) [Compound 49, (R)-1-methylpyrrolidin-3-yl 2-hydroxy-2-(3-((4-(((R)-2-hydroxy-2-(8-hydroxy-2-oxo-1,2-dihydroquinolin-5-yl)ethyl)amino)butyl)carbamoyl)phenyl)-2-phenylacetate diformate] the IC50 was < 0.3 nM. `CN(C)CCOC(=O)[C@@](O)(c1ccccc1)c1cccc(OCCCCCNC[C@H](O)c2ccc(O)c3[nH]c(=O)ccc23)c1` [Compound 18, (R)-2-(dimethylamino)ethyl 2-hydroxy-2-(3-((5-(((R)-2-hydroxy-2-(8-hydroxy-2-oxo-1,2-dihydroquinolin-5-yl)ethyl)amino)pentyl)oxy)phenyl)-2-phenylacetate] was tested, and the IC50 was < 0.3 nM. In the case of `O=C(NCCCOc1cccc([C@](O)(C(=O)O[C@@H]2CCN(Cc3ccccc3)C2)c2ccccc2)c1)c1ccc(CNC[C@H](O)c2ccc(O)c3[nH]c(=O)ccc23)cc1` [Compound 163, (R)-1-benzylpyrrolidin-3-yl (S)-2-hydroxy-2-(3-(3-(4-((((R)-2-hydroxy-2-(8-hydroxy-2-oxo-1,2-dihydroquinolin-5-yl)ethyl)amino)methyl)benzamido)propoxy)phenyl)-2-phenylacetate], the IC50 is reported as < 0.3 nM. With `CN1CCC[C@@H](OC(=O)[C@](O)(c2ccccc2)c2cccc(OCCCCCNC[C@H](O)c3ccc(O)c4[nH]c(=O)ccc34)c2)C1` [Compound 25] the IC50 was < 0.3 nM.

The molecules below were run against Human M3 receptor (Homo sapiens, UniProt P20309). Conditions: read-out: M3 binding affinity.
Human M3 receptor, sequence (P20309 whole entry): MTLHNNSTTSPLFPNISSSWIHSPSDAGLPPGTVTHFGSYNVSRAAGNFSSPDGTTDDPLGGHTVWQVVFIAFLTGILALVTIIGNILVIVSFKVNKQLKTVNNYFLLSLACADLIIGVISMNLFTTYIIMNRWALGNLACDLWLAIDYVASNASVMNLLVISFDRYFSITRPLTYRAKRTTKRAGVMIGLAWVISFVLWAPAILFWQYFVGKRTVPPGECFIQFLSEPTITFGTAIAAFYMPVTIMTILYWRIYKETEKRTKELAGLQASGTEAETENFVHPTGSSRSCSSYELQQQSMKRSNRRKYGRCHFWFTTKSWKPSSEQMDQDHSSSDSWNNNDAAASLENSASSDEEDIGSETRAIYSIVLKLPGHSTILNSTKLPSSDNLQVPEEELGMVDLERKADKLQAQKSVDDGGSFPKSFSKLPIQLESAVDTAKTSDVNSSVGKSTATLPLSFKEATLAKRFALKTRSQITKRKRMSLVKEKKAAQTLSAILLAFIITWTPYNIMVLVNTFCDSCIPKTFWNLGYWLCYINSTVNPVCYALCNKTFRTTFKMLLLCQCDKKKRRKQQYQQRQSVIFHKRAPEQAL
`O=C(N[C@H]1CCCN(C(=O)COc2cccc([C@](O)(C(=O)OCC3CCN(Cc4ccccc4)CC3)c3ccccc3)c2)C1)c1ccc(CNC[C@H](O)c2ccc(O)c3[nH]c(=O)ccc23)cc1` [Compound 72, (1-benzylpiperidin-4-yl)methyl (S)-2-hydroxy-2-(3-(2-((S)-3-(4-((((R)-2-hydroxy-2-(8-hydroxy-2-oxo-1,2-dihydroquinolin-5-yl)ethyl)amino)methyl)benzamido)piperidin-1-yl)-2-oxoethoxy)phenyl)-2-phenylacetate] showed an IC50 of 0.3 to 3 nM. Work on `O=C(N[C@H]1CCN(C(=O)COc2cccc([C@](O)(C(=O)OCC3CCN(Cc4ccccc4)CC3)c3ccccc3)c2)C1)c1ccc(CCNC[C@H](O)c2ccc(O)c3[nH]c(=O)ccc23)cc1` [Compound 109, (1-benzylpiperidin-4-yl)methyl (S)-2-hydroxy-2-(3-(2-((S)-3-(4-(2-(((R)-2-hydroxy-2-(8-hydroxy-2-oxo-1,2-dihydroquinolin-5-yl)ethyl)amino)ethyl)benzamido)pyrrolidin-1-yl)-2-oxoethoxy)phenyl)-2-phenylacetate] yielded an IC50 of 0.3 to 3 nM. Molecule `O=C(COc1cccc([C@](O)(C(=O)OCC2CCN(Cc3ccccc3)CC2)c2ccccc2)c1)N[C@@H]1CCCN(C(=O)c2ccc(CNC[C@H](O)c3ccc(O)c4[nH]c(=O)ccc34)cc2)C1` [Compound 71, (1-benzylpiperidin-4-yl)methyl (S)-2-hydroxy-2-(3-(2-(((R)-1-(4-((((R)-2-hydroxy-2-(8-hydroxy-2-oxo-1,2-dihydroquinolin-5-yl)ethyl)amino)methyl)benzoyl)piperidin-3-yl)amino)-2-oxoethoxy)phenyl)-2-phenylacetate] has an IC50 of 0.3 to 3 nM. With `O=C(COc1cccc([C@](O)(C(=O)OCC2CCN(Cc3ccccc3)CC2)c2ccccc2)c1)N1CC(C(=O)N2CCC(CNC[C@H](O)c3ccc(O)c4[nH]c(=O)ccc34)CC2)C1` [Compound 147, (1-Benzylpiperidin-4-yl)methyl (S)-2-hydroxy-2-(3-(2-(3-(4-((((R)-2-hydroxy-2-(8-hydroxy-2-oxo-1,2-dihydroquinolin-5-yl)ethyl)amino)methyl)piperidine-1-carbonyl)azetidin-1-yl)-2-oxoethoxy)phenyl)-2-phenylacetate] the IC50 was 0.3 to 3 nM.
